Measurements: patent publication US8450479B2, “3-substituted-4-oxo-3,4-dihydro-imidazo[5,1-d][1,2,3,5-tetrazine-8-carboxylic acid amides and their use” (Pharminox Limited, priority 2007, dated 2013)
Read-outs that look alike come from different tables or passages of the source.

Experiments:
Format in all cases: cell-based
Glioma SNB19M (MGMT+) = test: Clonogenic survival assay (Table 14, assay not named there)
Procedure: (§1) A clonogenic assay, which measures tumour cell survival and subsequent proliferative ability following drug exposure was used to verify that the cells remaining metabolically active following treatment with TMZ and new derivatives. See, e.g., Brown, J. M., et al., 1999, “Apoptosis, p53, and tumor cell sensitivity to anticancer agents”, Cancer Research, Vol. 59, No. 7, pp. 1391-1399.
(§2) Exponentially growing cells were seeded in triplicate at a density of 200 cells/well in 6 well plate and allowed to attach overnight and then exposed to increasing concentration of TMZ and test compounds (0, 5, 10, 100, 500, 1000 μM). After 18 hours, the plates were changed to drug free media and left to grow in the 37° C., 5% CO2 incubator. After 14 days, the plates were rinsed in PBS and fixed with pre-chilled methanol in room temperature for 20 minutes, and then stained with 0.5% methylene blue in 1:1 methanol/H2O (v/v) for 10 minutes and thoroughly washed in distilled water and air dried. Cell colonies containing >30 cells were counted. Growth inhibition by TMZ and test compounds was estimated by dividing the mean number of colonies under drug treatment by the mean number of colonies without drug treatment.

Glioma SNB19V (MGMT−) = test: as above
Procedure: as §1, §2

[1] = tested on: glioma MGMT− and MGMT+ cell lines; test: MTT assay, glioma lines as a whole; conditions: glioma MGMT− and MGMT+ cell lines
Description: This assay was first described in Mosmann, T., 1983, “Rapid colorimetric assay for cellular growth and survival: Application to proliferation and cytotoxicity assays”, Journal of Immunological Methods, Vol. 65, Nos. 1-2, pp. 55-63.
Glioma cell lines, SNB19 and U373, both MGMT transfected (i.e., SNB19M and U373M) and vector controls (i.e., SNB19V and U373V); colorectal carcinoma cell lines, HCT116, HT29, and DLD1; melanoma cell line, SKMEL-28; breast cell line, MCF-7; and normal human fetal lung fibroblast cell line, MRC-5; were harvested at 60-80% confluence—during the logarithmic phase of growth.
Following harvesting, cells in suspension were gently syringed through a 23 gauge needle to obtain a near-single cell suspension. The desired cell seeding densities were used and added into 96-well plates in 180 μL culture medium if only one test compound was to be added, or 160 μL if two test compounds were to be added in combination, which were allowed to attach at 37° C. (5% CO2) overnight. For the 7 day assay, the cell seeding density for different cell lines was as follows: SNB19V, SNB19M: 650 cells/well; U373V, U373M: 650 cells/well; SNB19VR, U373VR: 650 cells/well; HCT116, DLD-1, SKMEL-28, MRC-5, MCF-7: 400 cells/well.
The two peripheral lanes were used as blank wells (cell free) and filled with 200 μL of medium in order to minimise medium evaporation from the plate. A separate time zero (T0) plate was set up alongside other plates. Serial dilutions in tissue culture medium of a 100 mM stock of test compound in DMSO were prepared immediately before each assay to ten times the final concentrations required, and then 20 μL was added to each well (200 μL total media per well) to achieve final concentrations of 0.5 μM, 1 μM, 5 μM, 10 μM, 50 μM, 100 μM, 500 μM, and 1000 μM. A minimum of four wells received the same test compound concentration. To control wells, including those in the T0 plate, 20 μL of medium was added. Previous assays had been carried out to verify that cell viability was not affected by the amount of DMSO added into the test compound-treated wells. A separate plate treated in the same way, but free of test compound, was used as a measure of cell viability at the time of drug addition (day 0).
After incubation at 37° C., 5% CO2 for 7 days (or immediately for the day 0 plate), cell viability was quantified using the MTT assay. 50 μL of sterile filtered MIT (3-(4,5-dimethylthiazol-2-yl)-2,5-diphenyltetrazolium bromide) (2 mg/mL in phosphate buffered saline) were added to each well (final concentration 0.4 mg/mL) and the plates were re-incubated for 4 hours to allow metabolic conversion of MTT by dehydrogenases in viable cells to insoluble formazan crystals. The medium and any unconverted MTT was aspirated, 150 μL of DMSO was added to each well, and the plates were shaken on a plate shaker (Stuart Scientific 503) to ensure complete formazan solubilisation.
The intensity of absorbance is directly proportional to cell viability. A linear relationship exists between cell number and the amount of formazan and so the mean absorbance determined for each well of the same concentration can be used as a quantitative measure of viable cells compared to the controls. A graph of absorbance against drug concentration was plotted and the test compound concentration (GI50) causing 50% inhibition of control cell growth (absorbance increase from day 0) was calculated by interpolation.

Row | Structure (SMILES) | GI50 (Glioma SNB19M (MGMT+)) | GI50 (Glioma SNB19V (MGMT−)) | activity in words [1] | GI50 (Glioma SNB19M (MGMT+); listed as Temozolomide)
1 | C#CCn1nnc2c(C(N)=O)ncn2c1=O [EE-001, 3-Propargyl-8-carbamoylimidazotetrazin-4-one] | 7.8 µM | 7 µM | more potent than TMZ | –
2 | COCn1nnc2c(C(N)=O)ncn2c1=O [PX-020] | 30 µM | 38.6 µM | surprising efficacious | –
3 | C[Si](C)(C)CCOCn1nnc2c(C(N)=O)ncn2c1=O [PX-021] | 22.1 µM | 43.3 µM | surprising efficacious | –
4 | C[C@H](c1ccccc1)n1nnc2c(C(N)=O)ncn2c1=O [BB-001, (R)-3-(-1-Phenylethyl)-8-carbamoylimidazotetrazin-4-one] | 8.5 µM | 22.2 µM | – | –
5 | NC(=O)c1ncn2c(=O)n(CCl)nnc12 [PX-030] | 31.5 µM | 38.9 µM | – | –
6 | CCOC(=O)Cn1nnc2c(C(N)=O)ncn2c1=O [PX-016] | – | – | surprising efficacy | –
7 | C[S+]([O-])Cn1nnc2c(C(N)=O)ncn2c1=O (stereo not shown) [UU-003, 3-Methanesulfinylmethyl-4-oxo-3,4-dihydro-imidazo[5,1-d][1,2,3,5]tetrazine-8-carboxylic acid amide] | – | – | surprising efficacy | –
8 | Cn1nnc2c(C(N)=O)ncn2c1=O [TMZ, 3-Methyl-4-oxo-3,4-dihydro-imidazo[5,1-d][1,2,3,5]tetrazine-8-carboxylic acid amide, reference compound] | 875 µM | 32.2 µM | demonstrably more active in the glioma lines which are MGMT− | 834 µM
